Experimental data reported in patent US11572341B2, “Biguanide compound and use thereof” (ImmunoMet Therapeutics Inc., priority 2014, dated 2023).

Test system: HCT116 cells
Assay: Inhibitory effect against cancer cell proliferation (MTT)
Type: cell-based, human
Details: Homo sapiens, HCT-116; HCT116, MTT, 48 hours; read-out: IC50 (uM) @ HCT116
Method: The formazane crystals thus formed were dissolved using dimethyl sulfoxide (DMSO) and absorbance of the solution was measured at 560 nm. After culturing for 48 hours, […] synthesized in Examples was indicated as cell viability (%) according to each treated concentration.

SMILES	IC50
CC(=O)Nc1ccc(NC(=N)NC(=N)N)cc1.Cl [Example 125, N1-4-(N-acetylamino)phenyl Biguanide Hydrochloride]	> 100 µM
CC1CCN(C(=N)NC(=N)Nc2cccc(OC(F)(F)F)c2)CC1.Cl [Example 49, N1-(4-methy)piperidin-N5-(3-trifluoromethoxy)phenyl Biguanide Hydrochloride]	5.1 µM
CN1CCN(C(=N)NC(=N)Nc2cc(F)cc(F)c2)CC1.Cl [Example 39, N1-(4-methyl)piperazin-N5-(3,5-difluoro)phenyl Biguanide Hydrochloride]	> 100 µM
Cl.N=C(NC(=N)N1CCCC1)Nc1cc(C(F)(F)F)ccc1Cl [Example 76, N1-pyrrolidin-N5-(2-chloro-5-trifluoromethyl)phenyl Biguanide Hydrochloride]	42.1 µM
CC1CC(C)CN(C(=N)NC(=N)Nc2ccc(F)cc2)C1.Cl (centres unmarked) [Example 64, N1-(3,5-dimethyl)piperidin-N5=(4-fluoro)phenyl Biguanide Hydrochloride]	36.1 µM
CN1CCN(C(=N)NC(=N)NCc2ccccc2Cl)CC1.Cl [Example 32, N1-(4-methyl)piperazin-N5-(2-chloro)benzyl Biguanide Hydrochloride]	> 100 µM
CC1CCN(C(=N)NC(=N)Nc2ccc(F)c(C(F)(F)F)c2)CC1.Cl [Example 54, N1-(4-methyl)piperidin-N5-(3-trifluoromethyl-4-fluoro)phenyl Biguanide Hydrochloride]	6.7 µM
CC(C)(C)N(Cc1ccccc1)C(=N)NC(=N)Nc1ccc(Cl)cc1.Cl [Example 10, N1-(4-chloro)phenyl-N5-t-butyl-N5-benzyl Biguanide Hydrochloride]	> 100 µM
Cl.N=C(N)NC(=N)NCCc1ccc(O)cc1 [Example 138, N1-(4-hydroxy)phenethyl Biguanide Hydrochloride]	> 100 µM
CC1CNC(NC(=N)N2CCCCC2)=NC1=O.Cl (centres unmarked) [Example 155, N-(5-methyl-4-oxo-1,4,5,6-tetrahydropyrimidin-2-yl)piperidin-1-carboximidamide Hydrochloride]	> 100 µM
Cl.N=C(N)NC(=N)Nc1ccc(C(F)(F)F)cc1 [Example 128, N1-(4-trifluoromethyl)phenyl Biguanide Hydrochloride]	> 100 µM
CN(C(=N)NC(=N)N)C1CCCCC1.Cl [Example 135, N1-methyl-N1-cyclohexyl Biguanide Hydrochloride]	> 100 µM
CC1CCN(C(=N)NC(=N)Nc2cccc(C(F)(F)F)c2)CC1.Cl [Example 50, N1-(4-methyl)piperidin-N5-(3-trifluoromethyl)phenyl Biguanide Hydrochloride]	6.7 µM
CC(=O)c1ccc(NC(=N)NC(=N)N2CCCC2)cc1.Cl [Example 70, N1-pyrrolidin-N5-(4-acetyl)phenyl Biguanide Hydrochloride]	> 100 µM

Test system: AMPKa [pT172]
Assay: AMPKa activation [pT172] in MCF7 cell
Type: cell-based
Details: 5 uM

SMILES	AMPKa activation [pT172] (Unit/ml) @ MCF7 cell
CC1CCN(C(=N)NC(=N)Nc2cccc(OC(F)(F)F)c2)CC1.Cl [Example 49, N1-(4-methy)piperidin-N5-(3-trifluoromethoxy)phenyl Biguanide Hydrochloride]	9.3 Unit/ml
CN1CCN(C(=N)NC(=N)Nc2cc(F)cc(F)c2)CC1.Cl [Example 39, N1-(4-methyl)piperazin-N5-(3,5-difluoro)phenyl Biguanide Hydrochloride]	6.2 Unit/ml
Cl.N=C(NC(=N)N1CCCC1)Nc1cc(C(F)(F)F)ccc1Cl [Example 76, N1-pyrrolidin-N5-(2-chloro-5-trifluoromethyl)phenyl Biguanide Hydrochloride]	4.5 Unit/ml
CC1CC(C)CN(C(=N)NC(=N)Nc2ccc(F)cc2)C1.Cl (centres unmarked) [Example 64, N1-(3,5-dimethyl)piperidin-N5=(4-fluoro)phenyl Biguanide Hydrochloride]	2.2 Unit/ml
CN1CCN(C(=N)NC(=N)NCc2ccccc2Cl)CC1.Cl [Example 32, N1-(4-methyl)piperazin-N5-(2-chloro)benzyl Biguanide Hydrochloride]	5.5 Unit/ml
CC1CCN(C(=N)NC(=N)Nc2ccc(F)c(C(F)(F)F)c2)CC1.Cl [Example 54, N1-(4-methyl)piperidin-N5-(3-trifluoromethyl-4-fluoro)phenyl Biguanide Hydrochloride]	4.9 Unit/ml
Cl.N=C(N)NC(=N)NCCc1ccc(O)cc1 [Example 138, N1-(4-hydroxy)phenethyl Biguanide Hydrochloride]	3.7 Unit/ml
CC1CNC(NC(=N)N2CCCCC2)=NC1=O.Cl (centres unmarked) [Example 155, N-(5-methyl-4-oxo-1,4,5,6-tetrahydropyrimidin-2-yl)piperidin-1-carboximidamide Hydrochloride]	3.3 Unit/ml
Cl.N=C(N)NC(=N)Nc1ccc(C(F)(F)F)cc1 [Example 128, N1-(4-trifluoromethyl)phenyl Biguanide Hydrochloride]	7.6 Unit/ml
CC1CCN(C(=N)NC(=N)Nc2cccc(C(F)(F)F)c2)CC1.Cl [Example 50, N1-(4-methyl)piperidin-N5-(3-trifluoromethyl)phenyl Biguanide Hydrochloride]	8.3 Unit/ml
CC(=O)c1ccc(NC(=N)NC(=N)N2CCCC2)cc1.Cl [Example 70, N1-pyrrolidin-N5-(4-acetyl)phenyl Biguanide Hydrochloride]	3.5 Unit/ml

Same assay, conditions: 10 uM

SMILES	AMPKa activation [pT172] (Unit/ml) @ MCF7 cell
CC1CCN(C(=N)NC(=N)Nc2cccc(OC(F)(F)F)c2)CC1.Cl [Example 49, N1-(4-methy)piperidin-N5-(3-trifluoromethoxy)phenyl Biguanide Hydrochloride]	13.7 Unit/ml
CN1CCN(C(=N)NC(=N)Nc2cc(F)cc(F)c2)CC1.Cl [Example 39, N1-(4-methyl)piperazin-N5-(3,5-difluoro)phenyl Biguanide Hydrochloride]	7.1 Unit/ml
Cl.N=C(NC(=N)N1CCCC1)Nc1cc(C(F)(F)F)ccc1Cl [Example 76, N1-pyrrolidin-N5-(2-chloro-5-trifluoromethyl)phenyl Biguanide Hydrochloride]	4.7 Unit/ml
CC1CC(C)CN(C(=N)NC(=N)Nc2ccc(F)cc2)C1.Cl (centres unmarked) [Example 64, N1-(3,5-dimethyl)piperidin-N5=(4-fluoro)phenyl Biguanide Hydrochloride]	4.4 Unit/ml
CN1CCN(C(=N)NC(=N)NCc2ccccc2Cl)CC1.Cl [Example 32, N1-(4-methyl)piperazin-N5-(2-chloro)benzyl Biguanide Hydrochloride]	5.2 Unit/ml
CC1CCN(C(=N)NC(=N)Nc2ccc(F)c(C(F)(F)F)c2)CC1.Cl [Example 54, N1-(4-methyl)piperidin-N5-(3-trifluoromethyl-4-fluoro)phenyl Biguanide Hydrochloride]	8.9 Unit/ml
Cl.N=C(N)NC(=N)NCCc1ccc(O)cc1 [Example 138, N1-(4-hydroxy)phenethyl Biguanide Hydrochloride]	3.7 Unit/ml
CC1CNC(NC(=N)N2CCCCC2)=NC1=O.Cl (centres unmarked) [Example 155, N-(5-methyl-4-oxo-1,4,5,6-tetrahydropyrimidin-2-yl)piperidin-1-carboximidamide Hydrochloride]	2.8 Unit/ml
Cl.N=C(N)NC(=N)Nc1ccc(C(F)(F)F)cc1 [Example 128, N1-(4-trifluoromethyl)phenyl Biguanide Hydrochloride]	7.1 Unit/ml
CC1CCN(C(=N)NC(=N)Nc2cccc(C(F)(F)F)c2)CC1.Cl [Example 50, N1-(4-methyl)piperidin-N5-(3-trifluoromethyl)phenyl Biguanide Hydrochloride]	11.5 Unit/ml
CC(=O)c1ccc(NC(=N)NC(=N)N2CCCC2)cc1.Cl [Example 70, N1-pyrrolidin-N5-(4-acetyl)phenyl Biguanide Hydrochloride]	4.0 Unit/ml

Same assay, conditions: 50 uM

SMILES	AMPKa activation [pT172] (Unit/ml) @ MCF7 cell
CC(=O)Nc1ccc(NC(=N)NC(=N)N)cc1.Cl [Example 125, N1-4-(N-acetylamino)phenyl Biguanide Hydrochloride]	5.0 Unit/ml
CC1CCN(C(=N)NC(=N)Nc2cccc(OC(F)(F)F)c2)CC1.Cl [Example 49, N1-(4-methy)piperidin-N5-(3-trifluoromethoxy)phenyl Biguanide Hydrochloride]	cell death
CN1CCN(C(=N)NC(=N)Nc2cc(F)cc(F)c2)CC1.Cl [Example 39, N1-(4-methyl)piperazin-N5-(3,5-difluoro)phenyl Biguanide Hydrochloride]	8.2 Unit/ml
Cl.N=C(NC(=N)N1CCCC1)Nc1cc(C(F)(F)F)ccc1Cl [Example 76, N1-pyrrolidin-N5-(2-chloro-5-trifluoromethyl)phenyl Biguanide Hydrochloride]	8.8 Unit/ml
CC1CC(C)CN(C(=N)NC(=N)Nc2ccc(F)cc2)C1.Cl (centres unmarked) [Example 64, N1-(3,5-dimethyl)piperidin-N5=(4-fluoro)phenyl Biguanide Hydrochloride]	31.4 Unit/ml
CN1CCN(C(=N)NC(=N)NCc2ccccc2Cl)CC1.Cl [Example 32, N1-(4-methyl)piperazin-N5-(2-chloro)benzyl Biguanide Hydrochloride]	5.3 Unit/ml
CC1CCN(C(=N)NC(=N)Nc2ccc(F)c(C(F)(F)F)c2)CC1.Cl [Example 54, N1-(4-methyl)piperidin-N5-(3-trifluoromethyl-4-fluoro)phenyl Biguanide Hydrochloride]	cell death
CC(C)(C)N(Cc1ccccc1)C(=N)NC(=N)Nc1ccc(Cl)cc1.Cl [Example 10, N1-(4-chloro)phenyl-N5-t-butyl-N5-benzyl Biguanide Hydrochloride]	10.4 Unit/ml
Cl.N=C(N)NC(=N)NCCc1ccc(O)cc1 [Example 138, N1-(4-hydroxy)phenethyl Biguanide Hydrochloride]	4.2 Unit/ml
CC1CNC(NC(=N)N2CCCCC2)=NC1=O.Cl (centres unmarked) [Example 155, N-(5-methyl-4-oxo-1,4,5,6-tetrahydropyrimidin-2-yl)piperidin-1-carboximidamide Hydrochloride]	3.9 Unit/ml
Cl.N=C(N)NC(=N)Nc1ccc(C(F)(F)F)cc1 [Example 128, N1-(4-trifluoromethyl)phenyl Biguanide Hydrochloride]	8.8 Unit/ml
CN(C(=N)NC(=N)N)C1CCCCC1.Cl [Example 135, N1-methyl-N1-cyclohexyl Biguanide Hydrochloride]	4.2 Unit/ml
CC1CCN(C(=N)NC(=N)Nc2cccc(C(F)(F)F)c2)CC1.Cl [Example 50, N1-(4-methyl)piperidin-N5-(3-trifluoromethyl)phenyl Biguanide Hydrochloride]	cell death
CC(=O)c1ccc(NC(=N)NC(=N)N2CCCC2)cc1.Cl [Example 70, N1-pyrrolidin-N5-(4-acetyl)phenyl Biguanide Hydrochloride]	5.4 Unit/ml
